Results published in patent US20230320360A1, “FORMULATIONS AND METHODS FOR REGULATING AND STIMULATING PLANT GROWTH” (priority 2020, published 2023).

System: corn fall armyworm (FAW) (Spodoptera frugiperda)
Assay: Field trials, insecticide plus ortho silicic acid against corn fall armyworm
Format: in vivo
Parameters: concentration or dose not given beside the values

`CNC(=O)c1cc(Cl)cc(C)c1NC(=O)c1cc(Br)nn1-c1ncccc1Cl` [CTPR, Chlorantraniliprole] was tested. Which “Percent Control (%)” value (A01 = 1 day after first spray) did it give?
The value was 67.6%.

And the “Percent Control (%)” value (B07 = 7 days after 2nd spray)?
Its value is 86.8%.

What about the “Percent Control (%)” value (B10, after 2nd application) of the same compound?
The value was 88.9%.

What about the “Percent Control (%)” value (B21, after 2nd application) of the same compound?
The value was 87%.

Which “Percent Control (%)” value (A01 = 1 day after first spray) does the source give for `O=C(NC(=O)c1c(F)cccc1F)Nc1ccc(OC(F)(F)C(F)OC(F)(F)F)c(Cl)c1` (stereo not drawn) [Novaluron] here?
The value was 60.5%.

And the “Percent Control (%)” value (B07 = 7 days after 2nd spray)?
The value was 88.8%.

And the “Percent Control (%)” value (B10, after 2nd application)?
The value was 88.9%.

And the “Percent Control (%)” value (B21, after 2nd application)?
The value was 84.7%.

Which “Percent Control (%)” value (A01 = 1 day after first spray) does the source give for Orthosilicic acid [OSA] here?
The value was 32.4%.

What about the “Percent Control (%)” value (B07 = 7 days after 2nd spray) of the same compound?
The value was 58.6%.

What about the “Percent Control (%)” value (B10, after 2nd application) of the same compound?
The value was 60.6%.

What about the “Percent Control (%)” value (B21, after 2nd application) of the same compound?
Its value is 59%.
